Measured values taken from patent US5510469A, “2-acyloxy-4-morpholinyl anthracyclines” (priority 1990, dated 1996).
In brackets after ≈: the same amount, converted by molar mass. Where two headings read alike, the source gives them in different places.

How the values were obtained:
[1] = system: LoVo cells; assay: Colony assay (cytotoxicity after 4 hr treatment), LoVo cells; format: cell-based; details: Homo sapiens, read-out: IC50 (concentration inhibiting 50% colony growth), LoVo
Description: (§1) 3'-deamino-3' 2-benzoyl-4-morpholinyl!doxorubicin (1a) was tested "in vitro" against LoVo and LoVo-resistant-doxorubicin (LoVo/DX) cells using a single cell plating technique after 4 hr treatment (Colony assay). The 50% inhibition concentration (IC50) was calculated using concentration-response curves. Compound 1a was tested in comparison with Doxorubicin.
(§2) Cytotoxicity after 4 hr treatment IC50 = ng/ml^(1)
(§3) ^(1) IC50 = concentration inhibiting 50% colony growth

[2] = system: LoVo/DX cells; assay: Colony assay (cytotoxicity after 4 hr treatment), LoVo-resistant-doxorubicin (LoVo/DX) cells; format: cell-based; details: for IC50: read-out: IC50 (concentration inhibiting 50% colony growth), LoVo/DX; for R.I. = Resistance Index = (IC50 LoVo/DX)/(IC50 LoVo): ratio LoVo/DX to LoVo
Description: as §1, §2, §3
^(2) R.I. = Resistance Index = (IC50 LoVo/DX)/(IC50 LoVo)

[3] = system: P388/DX (Johnson) Leukemias; assay: Antitumor activity in vivo against P388 murine leukemia resistant to Doxorubicin (P388/DX, Johnson); details: P388/DX 10^5 cells/mouse i.v. in CDF mice; treatment on day 1; at optimal dose: 1a 1.2 mg/kg, Doxorubicin 13-16.9 mg/kg
Description: Antitumor activity against P388/DX
^(1) 10^5 cells/mouse (P388/DX, Johnson) transplanted i.v. in CDF
Treatment on day 1 after inoculation of tumor.
^(3) Median survival time; % over […] controls.
Compound 1a was evaluated "in vivo" against P388 murine Leukemias resistant to Doxorubicin, in comparison with Doxorubicin.

COc1cccc2c1C(=O)c1c(O)c3c(c(O)c1C2=O)C[C@@](O)(C(=O)CO)C[C@@H]3O[C@H]1C[C@H](N2CCOC(OC(=O)c3ccccc3)C2)[C@H](O)[C@H](C)O1 (some centres unmarked) [Compound 1a]
IC50 ([1]; LoVo, 4 h): 0.0069 µg/mL (≈ 0.0094 µM) | IC50 ([2]; LoVo/DX, 4 h): 0.027 µg/mL (≈ 0.0368 µM) | R.I. = Resistance Index = (IC50 LoVo/DX)/(IC50 LoVo) ([2]; 4 hr treatment): 3.9 | T/C % (median survival time; % over treated controls) [3]: 175%

COc1cccc2c1C(=O)c1c(O)c3c(c(O)c1C2=O)C[C@@](O)(C(=O)CO)C[C@@H]3O[C@H]1C[C@H](N)[C@H](O)[C@H](C)O1 [Doxorubicin, doxorubicin]
IC50 ([1]; LoVo cells, 4 hr treatment, colony assay): 0.06 µg/mL (≈ 0.11 µM) | IC50 ([2]; LoVo/DX cells, 4 hr treatment, colony assay): 2.16 µg/mL (≈ 3.97 µM) | R.I. = Resistance Index = (IC50 LoVo/DX)/(IC50 LoVo) ([2]; 4 hr treatment): 36 | T/C % (median survival time; % over treated controls) [3]: 86-100%
